Assay: xn = mol fraction of the nth substance listed
Conditions: 101 kPa, Liquid; for mass density: Vibrating tube method; for speed of sound: Sing-around technique in a fixed-path interferometer

CCCCCCCCCCn1cc[n+](C)c1.[Cl-] [1-decyl-3-methylimidazolium chloride] + O
Conditions | mass density, 298 K [kg/m3] | mass density, 303 K [kg/m3] | mass density, 308 K [kg/m3] | mass density, 313 K [kg/m3] | speed of sound, 303 K [m/s] | speed of sound, 308 K [m/s] | speed of sound, 313 K [m/s]
x1 = 0.000105 | 997.096 | 995.704 | 994.091 | 992.269 | 1510.3 | 1520.9 | 1529.9
x1 = 0.000185 | 997.108 | 995.706 | 994.084 | 992.257 | 1511.1 | 1521.6 | 1530.5
x1 = 0.000277 | 997.114 | 995.707 | 994.08 | 992.252 | 1512.1 | 1522.5 | 1531.4
x1 = 0.000377 | 997.124 | 995.711 | 994.079 | 992.242 | 1513.1 | 1523.4 | 1532.2
x1 = 0.000452 | 997.122 | 995.705 | 994.068 | 992.229 | 1513.8 | 1524.1 | 1532.8
x1 = 0.000546 | 997.141 | 995.718 | 994.074 | 992.227 | 1514.7 | 1524.9 | 1533.5
x1 = 0.000728 | 997.166 | 995.732 | 994.082 | 992.229 | 1516.6 | 1526.7 | 1535.1
x1 = 0.000836 | 997.199 | 995.759 | 994.1 | 992.239 | 1517.7 | 1527.7 | 1536
x1 = 0.001002 | 997.205 | 995.75 | 994.083 | 992.214 | 1519.2 | 1528.9 | 1537.2
x1 = 0.001099 | 997.182 | 995.72 | 994.044 | 992.17 | 1519.7 | 1529.4 | 1537.6
x1 = 0.00118 | 997.205 | 995.739 | 994.057 | 992.176 | 1520.3 | 1529.9 | 1538
x1 = 0.001259 | 997.199 | 995.728 | 994.044 | 992.167 | 1520.6 | 1530.2 | 1538.3
x1 = 0.001351 | 997.192 | 995.715 | 994.028 | 992.142 | 1521 | 1530.5 | 1538.6
x1 = 0.001452 | 997.175 | 995.694 | 994.006 | 992.118 | 1521.5 | 1531 | 1539
x1 = 0.001539 | 997.164 | 995.683 | 993.985 | 992.095 | 1521.6 | 1531.1 | 1539
x1 = 0.001631 | 997.146 | 995.659 | 993.962 | 992.066 | 1521.9 | 1531.3 | 1539.2
x1 = 0.001869 | 997.078 | 995.549 | 993.807 | 991.864 | 1522.4 | 1531.7 | 1539.5
x1 = 0.001988 | 997.079 | 995.574 | 993.859 | 991.947 | 1522.6 | 1531.9 | 1539.7

Reference: the NIST ThermoML archive (doi:10.1016/j.jct.2012.11.032)
